Test system: 349418-098-R-PDC complex spheroid viability
Assay: Anticancer human tumor 349418-098-R-PDC patient-derived lung adenocarcinoma cell line growth inhibition [RAS]
Details: for IC50: curve of first compound; for viability, T/C: stronger effect = lower value
How it was run: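 Tumour cells grown as complex spheroids with HUVEC endothelial cells and mesenchymal stem cells, treated with RAS pathway inhibitor combinations. Each agent spans half-log steps from near clinical Cmax, or 10 microM where Cmax is unknown.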
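Further: spheroids exposed to compound for seven days before viability readout.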

CCN1CCN(Cc2ccc(Nc3ncc(F)c(-c4cc(F)c5nc(C)n(C(C)C)c5c4)n3)nc2)CC1 + C#Cc1c(F)ccc2cc(O)cc(-c3ncc4c(N5CC6CCC(C5)N6)nc(OCC56CCCN5CC(F)C6)nc4c3F)c12
IC50 (second compound 0.0316 µM): 7.9 nM
IC50 (second compound 0.1 µM): 30.5 nM
IC50 (second compound 0.316 µM): 18.2 nM
IC50 (second compound 1 µM): 12.3 nM
IC50 (second compound 3.16 µM): 10.3 nM
IC50 (second compound 10 µM): < 3.16 nM
viability, T/C (second compound 0.0316 µM, first compound 0.00316 µM): 66.8%
viability, T/C (second compound 0.0316 µM, first compound 0.01 µM): 38.2%
viability, T/C (second compound 0.0316 µM, first compound 0.0316 µM): 41.9%
viability, T/C (second compound 0.0316 µM, first compound 0.1 µM): 25.9%
viability, T/C (second compound 0.0316 µM, first compound 0.316 µM): 18%
viability, T/C (second compound 0.0316 µM, first compound 1 µM): 16.3%
viability, T/C (second compound 0.1 µM, first compound 0.00316 µM): 76.2%
viability, T/C (second compound 0.1 µM, first compound 0.01 µM): 77.7%
viability, T/C (second compound 0.1 µM, first compound 0.0316 µM): 47.6%
viability, T/C (second compound 0.1 µM, first compound 0.1 µM): 25.7%
viability, T/C (second compound 0.1 µM, first compound 0.316 µM): 22%
viability, T/C (second compound 0.1 µM, first compound 1 µM): 14.4%
viability, T/C (second compound 0.316 µM, first compound 0.00316 µM): 78.2%
viability, T/C (second compound 0.316 µM, first compound 0.01 µM): 59.9%
viability, T/C (second compound 0.316 µM, first compound 0.0316 µM): 40.8%
viability, T/C (second compound 0.316 µM, first compound 0.1 µM): 28.9%
viability, T/C (second compound 0.316 µM, first compound 0.316 µM): 24.4%
viability, T/C (second compound 0.316 µM, first compound 1 µM): 16.2%
viability, T/C (second compound 1 µM, first compound 0.00316 µM): 79.4%
viability, T/C (second compound 1 µM, first compound 0.01 µM): 49.6%
viability, T/C (second compound 1 µM, first compound 0.0316 µM): 37.8%
viability, T/C (second compound 1 µM, first compound 0.1 µM): 33.5%
viability, T/C (second compound 1 µM, first compound 0.316 µM): 20.5%
viability, T/C (second compound 1 µM, first compound 1 µM): 19.9%
viability, T/C (second compound 3.16 µM, first compound 0.00316 µM): 74.1%
viability, T/C (second compound 3.16 µM, first compound 0.01 µM): 51.3%
viability, T/C (second compound 3.16 µM, first compound 0.0316 µM): 32.8%
viability, T/C (second compound 3.16 µM, first compound 0.1 µM): 29.1%
viability, T/C (second compound 3.16 µM, first compound 0.316 µM): 30.4%
viability, T/C (second compound 3.16 µM, first compound 1 µM): 16.6%
viability, T/C (second compound 10 µM, first compound 0.00316 µM): 26.7%
viability, T/C (second compound 10 µM, first compound 0.01 µM): 37.7%
viability, T/C (second compound 10 µM, first compound 0.0316 µM): 14.3%
viability, T/C (second compound 10 µM, first compound 0.1 µM): 12.5%
viability, T/C (second compound 10 µM, first compound 0.316 µM): 5.58%
viability, T/C (second compound 10 µM, first compound 1 µM): 2.78%

CC1(O)CCCC1n1c(=O)c(C(F)F)cc2cnc(NC3CCN(S(C)(=O)=O)CC3)nc21 (centres undefined) + CCn1c(-c2cc(N3CCN(C)CC3)cnc2C(C)OC)c2c3cc(ccc31)-c1csc(n1)CC(NC(=O)C1CC1C)C(=O)N1CCCC(N1)C(=O)OCC(C)(C)C2
IC50 (second compound 0.000949 µM): 63.6 nM
IC50 (second compound 0.003 µM): 73.1 nM
IC50 (second compound 0.00949 µM): 56.9 nM
IC50 (second compound 0.03 µM): 84.3 nM
IC50 (second compound 0.0949 µM): 83.6 nM
IC50 (second compound 0.3 µM): 78.1 nM
viability, T/C (second compound 0.000949 µM, first compound 0.0316 µM): 71.3%
viability, T/C (second compound 0.000949 µM, first compound 0.1 µM): 34.3%
viability, T/C (second compound 0.000949 µM, first compound 0.316 µM): 21.8%
viability, T/C (second compound 0.000949 µM, first compound 1 µM): 21.3%
viability, T/C (second compound 0.000949 µM, first compound 3.16 µM): 22.5%
viability, T/C (second compound 0.000949 µM, first compound 10 µM): 3.27%
viability, T/C (second compound 0.003 µM, first compound 0.0316 µM): 73.1%
viability, T/C (second compound 0.003 µM, first compound 0.1 µM): 38.1%
viability, T/C (second compound 0.003 µM, first compound 0.316 µM): 25.3%
viability, T/C (second compound 0.003 µM, first compound 1 µM): 20.1%
viability, T/C (second compound 0.003 µM, first compound 3.16 µM): 21.5%
viability, T/C (second compound 0.003 µM, first compound 10 µM): 2.54%
viability, T/C (second compound 0.00949 µM, first compound 0.0316 µM): 60.6%
viability, T/C (second compound 0.00949 µM, first compound 0.1 µM): 41.4%
viability, T/C (second compound 0.00949 µM, first compound 0.316 µM): 22%
viability, T/C (second compound 0.00949 µM, first compound 1 µM): 23%
viability, T/C (second compound 0.00949 µM, first compound 3.16 µM): 19.6%
viability, T/C (second compound 0.00949 µM, first compound 10 µM): 2.74%
viability, T/C (second compound 0.03 µM, first compound 0.0316 µM): 70.8%
viability, T/C (second compound 0.03 µM, first compound 0.1 µM): 48.1%
viability, T/C (second compound 0.03 µM, first compound 0.316 µM): 23.6%
viability, T/C (second compound 0.03 µM, first compound 1 µM): 22.9%
viability, T/C (second compound 0.03 µM, first compound 3.16 µM): 19.2%
viability, T/C (second compound 0.03 µM, first compound 10 µM): 2.55%
viability, T/C (second compound 0.0949 µM, first compound 0.0316 µM): 83.8%
viability, T/C (second compound 0.0949 µM, first compound 0.1 µM): 42%
viability, T/C (second compound 0.0949 µM, first compound 0.316 µM): 23.3%
viability, T/C (second compound 0.0949 µM, first compound 1 µM): 23.9%
viability, T/C (second compound 0.0949 µM, first compound 3.16 µM): 21.4%
viability, T/C (second compound 0.0949 µM, first compound 10 µM): 2.75%
viability, T/C (second compound 0.3 µM, first compound 0.0316 µM): 78.2%
viability, T/C (second compound 0.3 µM, first compound 0.1 µM): 40.7%
viability, T/C (second compound 0.3 µM, first compound 0.316 µM): 22.5%
viability, T/C (second compound 0.3 µM, first compound 1 µM): 22.3%
viability, T/C (second compound 0.3 µM, first compound 3.16 µM): 20.5%
viability, T/C (second compound 0.3 µM, first compound 10 µM): 2.63%
